Measurements published in patent US20240207262A1, “PROPHYLACTIC AND/OR THERAPEUTIC AGENT FOR AMYOTROPHIC LATERAL SCLEROSIS” (NATIONAL UNIVERSITY CORPORATION TOKAI NATIONAL HIGHER …, priority 2021, published 2024).

What was measured:
[1] = tested on: SOD1^G93A transgenic mice; test: Rotarod test (motion analysis) in SOD1^G93A transgenic mice; format: in vivo, mouse; settings: 1 mg/kg/day in diet, vs control diet; 2-way ANOVA, p=0.002
Description: (§1) PF-04457845 was mixed in the diet, and administration started at 8 weeks of age. […] Drug efficacy analysis was conducted using body weight, motion analysis based on the Rotarod test (measured once a week), and survival analysis.
(§2) • Week 0: • Week 6: 1. Body weight, 2. Rotarod test (the method for measuring the motor function of mice) • Week 8: The drug (PF-04457845) was mixed with the diet, and administration started. • Week 9-10: Onset • Around week 17-20: Survival analysis
(§3) PF-04457845 was administered at a dose of 1 mg/kg/day. The dosage was determined based on a previous report on administration to rats (Ahn K et al. Journal of Pharmacology and Experimental Therapeutics 2011: 338; 114-124).

[2] = tested on: SOD1^G93A transgenic mice; test: Survival analysis in SOD1^G93A transgenic mice; format: in vivo, mouse; settings: 1 mg/kg/day mixed in diet from 8 weeks of age, vs control diet; log rank test p<0.001
Description: as §1
An ALS model animal with mutation of SOD1 gene, which is responsible for familial ALS, was used to conduct efficacy analysis of PF-04457845. The control was one that was free of the drug.
as §2, §3
In accordance with the method shown in FIG. 6, survival analysis was performed. • ♂ (male), PF-04457845: n=8, Control: […] • ♀ (female), PF-04457845: n=8, Control: n=13 • Log rank test p<0.001

[3] = tested on: mouse spinal cords; test: Mouse spinal cord RNA sequencing (GO and IPA analysis) in SOD1^G93A transgenic mice; format: in vivo; settings: 16 weeks of age, drug diet vs control diet
Description: The experiment of PF-04457845 administration to SOD1^G93A transgenic mice was continued, and RNA sequencing of the spinal cord was performed on mice treated with a drug-infused diet and mice treated with a control diet, both at 16 weeks of age.
GO analysis: This is a method for analyzing a group of genes that have many variable genes when genes are grouped according to their functionality among mRNAs whose RNA sequences show changes.
IPA analysis: An analysis to explore the association of known pathways, upstream factors, and toxicity with disease.

[4] = tested on: mouse spinal cord motor neurons; test: Spinal cord ChAT staining (motor neurons) in SOD1^G93A transgenic mice; format: in vivo
Description: as §1
In accordance with the method shown in FIG. 6, the drug was administered, and the pathological specimens of mouse spinal cords in an advanced stage of the disease were subjected to ChAT staining (motor neuron).
19W and 22W PF-04457845-administered mouse spinal cords were compared with a 19W control-administered mouse spinal cord.
The photographs are of a 22W PF-04457845-administered mouse spinal cord and a 19W control-administered mouse spinal cord.
(§4) A 16W PF-04457845-administered mouse spinal cord was compared with a 16W control-administered mouse spinal cord.
The photographs are of the 16W PF-04457845-administered mouse spinal cord and 16W control-administered mouse spinal cord.

[5] = tested on: NSC34 cells (mouse motor neuron) expressing SOD1^G93A; test: WST cell viability assay, NSC34 cells transfected with SOD1^G93A; format: cell-based; settings: for Viability (SOD1^G93A): ratio of maximum viability to viability at 0 μM
Description: (§5) A pathological cell model was created by transient forced expression of the following genes in NSC34 cells (mouse motor neuron) by transfecting the cells with a plasmid using Lipofectamine 2000 (R) (Thermo Fisher Scientific), and changes in cell viability due to drug administration were analyzed by WST assay.
(§6) • Day 0: NSC 34 cell culture (DMEM FBS 10%) • Day 1: Transfection (Cells were transfected with a plasmid having the following genes inserted by using Lipofectamine 2000 (R) (Thermo Fisher Scientific).) • 1. Mock (unmutated cells: control plasmid-transfected cells) • 2. TDP-43^A315T: TDP-43 mutation model (reflecting human pathological conditions) • 3. SOD1^G93A: mutation SOD1 familial model (mutation common to humans and animal models) • Cell culture is continued afterward in FBS-free DMEM. • Day 4: Drug administration • Day 5: WST assay (Cell viability is measured to determine the effect of drug administration.)
(§7) Two types of cellular models were used to bridge the gap between SOD1 transgenic mouse models and sporadic ALS human pathological conditions (TDP-43 cell model).
(§8) The viability indicates the ratio of maximum viability to viability at 0 μM. The […] PF-04457845 yielded a viability about 1.3 times the viability with the existing drug riluzole (control) at a concentration one-tenth the concentration of riluzole.

[6] = Body weight of SOD1^G93A transgenic mice; format: in vivo, mouse; settings: 1 mg/kg/day in diet, vs control diet; 2-way ANOVA; trend toward limiting weight loss
Description: as §1, §2, §3

[7] = tested on: astrocytes; test: Spinal cord GFAP staining in SOD1^G93A transgenic mice; format: in vivo; settings: 16W treated vs 16W control mouse spinal cord
Description: as §1, §4

[8] = tested on: NSC34 cells; test: WST cell viability assay, NSC34 ALS model cells (model not given); format: cell-based, mouse
Description: as §5, §6
The experimental conditions are those described in FIG. 3.

[9] = tested on: NSC34 cells (mouse motor neuron) expressing TDP-43^A315T; test: WST cell viability assay, NSC34 cells transfected with TDP-43^A315T; format: cell-based; settings: for Viability (TDP-43^A315T): ratio of maximum viability to viability at 0 μM
Description: as §5, §6, §7, §8

[10] = tested on: microglia; test: Spinal cord Iba-1 staining in SOD1^G93A transgenic mice; format: in vivo; settings: 16W treated vs 16W control mouse spinal cord
Description: as §1, §4

Structure (SMILES)	Rotarod test (motor function) [1]	Survival period [2]	Expression of CD36 in mouse spinal cords [3]	Expression of Pla2g3 in mouse spinal cords [3]	Expression of lipoprotein lipase (Lpl) in mouse spinal cords [3]	IL-13 signaling pathway (IPA analysis) [3]	ChAT-positive motor neuron count in spinal cord ([4]; 16W treated mice vs 16W control mice)	ChAT-positive motor neuron count in spinal cord ([4]; 19W and 22W treated mice vs 19W control mice, advanced stage)	Improving cell viability, SOD1 (G93A) mutation cell model ([5]; 10 nM)	Viability (SOD1^G93A) ([5]; concentration 10 nM)	Body weight [6]	GFAP staining: proliferation of astrocytes [7]	Viability relative to the viability with riluzole (control) ([8]; at a concentration one-tenth the concentration of riluzole)	Improving effect on cell viability compared with other FAAH inhibitors ([8]; vs PF-3845, arachidonoyl serotonin, FAAH inhibitor II, conditions of FIG. 3)	Improving cell viability, TDP-43 mutation (A315T) cell model ([9]; 10 nM)	Viability (TDP-43^A315T) ([9]; concentration 10 nM)	Iba-1 staining: proliferation of microglia [10]	Viability (SOD1^G93A) ([5]; concentration 0.1 μM)	Viability (TDP-43^A315T) ([9]; concentration 0.1 μM)
O=C(Nc1cccnn1)N1CCC(=Cc2cccc(Oc3ccc(C(F)(F)F)cn3)c2)CC1 [PF-04457845, N-pyridazin-3-yl-4-(3-{[5-(trifluoromethyl)pyridin-2-yl]oxy}benzylidene) piperidine-1-carboxamide]	significant progression-inhibiting effect	effect of prolonging the survival period was observed	increased	decreased	increased	activation of IL-13 signaling pathway	effect of limiting the decrease in motor neuron count	effect of limiting the decrease in motor neuron count	highly effective in improving the cell viability	1.26	no significant difference in body weight	effect of inhibiting the proliferation of astrocytes	about 1.3 times	more effective in improving cell viability	highly effective in improving the cell viability	1.31	effect of inhibiting the proliferation of microglia	–	–
Nc1nc2ccc(OC(F)(F)F)cc2s1 [Riluzole, riluzole]	–	–	–	–	–	–	–	–	–	–	–	–	–	–	–	–	–	1.00	1.03
